Data from PMC12948223, “HSP70 Interactome‐Mediated Proteolysis Targeting Chimera (HSP70‐PROTAC) for Ferroptosis‐Driven Cancer Treatment” (Advanced Science, 2025).

How the values were obtained:
HT1080 cells = assay: Cell viability CCK-8 assay; format: cell-based, human; settings: Homo sapiens, HT-1080, CCK-8, 48 h, read-out: IC50 (cytotoxicity)
Summary of the method: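 HT1080 cells seeded 24 h, then exposed to serial compound dilutions (final DMSO <0.5% v/v) for 48 or 72 h at 37 °C. Viability by CCK-8 absorbance at 450 nm; IC50 from nonlinear regression, ≥3 independent repeats.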

[1] = target: T1, Hsc70 in the presence of GPX4 protein (Homo sapiens, UniProt P11142+P36969); assay: SPR ternary-complex binding (GDAz-3 preincubated with GPX4, Hsc70 immobilized)
T1 construct: purchased MedChemExpress (Hsc70); Cayman (GPX4) HY-P73915A; 26 906
Procedure: The SPR data was generated by our Shared Instrumentation Core Facility at the Hangzhou Institute of Medicine (HIM), Chinese Academy of Sciences. The in vitro binding affinity of compound GDAz‐3 to recombinant proteins (Hsc70, MedChemExpress, #HY‐P73915A; GPX4, Cayman, Item No. 26 906) was evaluated using a Biacore 8K system (Cytiva (GE)) with the method of LMW multi‐cycle kinetics/affinity. Pipelines and chips were flushed with PBS (pH 7.4) running buffer, and then, human Hsc70 was immobilized on a CM5 sensor chip. Analysis was performed at a flow rate of 30 µL min^−1 at 25 °C with the injection of incremental concentrations of compounds dissolved in buffer solution (the final concentration of DMSO was 5%). For ternary‐complex binding measurements, Hsc70 was immobilized on a CM5 sensor chip, and compound GDAz‐3 at a concentration of 1 µM was preincubated with GPX4. The binding and dissociation durations were recorded as response unit values for 120 and 120 s in succession, respectively. Finally, the data were analyzed by Biacore evaluation software with the method of LMW multi‐cycle kinetics/affinity.

GPX4 mRNA = assay: Real-time qRT-PCR of GPX4 mRNA in HT1080 cells; format: cell-based, human; settings: HT1080 cells, 0.1, 0.3, 1 and 3 µM, 24 h
Procedure: Real‐time qRT‐PCR was used to determine the mRNA expression level of GPX4 gene in HT1080 cells. In brief, HT1080 cells were seeded in 6‐well plates at a density of 4.5 × 10^5 cells per well and allowed to adhere overnight. Subsequently, the cells were exposed to different concentrations of the test compound GDAz‐3 for 24 h. Total RNA from the various cell samples was extracted using an RNA‐Quick Purification Kit (#RC112, Vazyme, Nanjing, China) according to the manufacturer's instructions. The concentrations of the isolated RNA samples were determined using NanoDrop. A total of 2 µg RNA was used to synthesize cDNA using Fast‐All‐in‐One RT Kit (#RT001, ES Science, Shanghai) following the manufacturer's guidelines. Real‐time PCR was performed using 2xSuper SYBR Green QPCR Master Mix (#QP002, ES Science, Shanghai) and determined using a CFX96 PCR instrument with the following cycling conditions: 95 °C for 5 min, 95 °C for 10 s, and 60 °C for 30 s, 40 cycles. The data were analyzed by Bio‐Rad CFX Manager Software version 3.1. The primers used in this experiment were as follows: […]

GSH = assay: Intracellular GSH in HT1080 cells; format: cell-based, human; settings: 0.5 and 1 µM, 24 h
Procedure: HT1080 cells were seeded into 10‐cm‐diameter culture dishes at a density of 2 × 10⁶ cells overnight and then exposed to GDAz‐3 (0.1, 0.5, and 1 µM). Followed by 24‐h incubation, the culture medium was discarded, and the cells were digested with trypsin. The cells were collected and washed with PBS, and threefold of protein removal reagent S was added. Two freeze‐thaw cycles were performed using liquid nitrogen and a 37 °C water bath, followed by a 5‐min ice bath. The samples were centrifuged at 10 000 × g for 10 min at 4 °C. The supernatant was collected and measured according to the instructions of the Total Glutathione Assay Kit (Beyotime Biotechnology, S0052) using a kinetic assay method.

T1 sequence (P11142 whole entry): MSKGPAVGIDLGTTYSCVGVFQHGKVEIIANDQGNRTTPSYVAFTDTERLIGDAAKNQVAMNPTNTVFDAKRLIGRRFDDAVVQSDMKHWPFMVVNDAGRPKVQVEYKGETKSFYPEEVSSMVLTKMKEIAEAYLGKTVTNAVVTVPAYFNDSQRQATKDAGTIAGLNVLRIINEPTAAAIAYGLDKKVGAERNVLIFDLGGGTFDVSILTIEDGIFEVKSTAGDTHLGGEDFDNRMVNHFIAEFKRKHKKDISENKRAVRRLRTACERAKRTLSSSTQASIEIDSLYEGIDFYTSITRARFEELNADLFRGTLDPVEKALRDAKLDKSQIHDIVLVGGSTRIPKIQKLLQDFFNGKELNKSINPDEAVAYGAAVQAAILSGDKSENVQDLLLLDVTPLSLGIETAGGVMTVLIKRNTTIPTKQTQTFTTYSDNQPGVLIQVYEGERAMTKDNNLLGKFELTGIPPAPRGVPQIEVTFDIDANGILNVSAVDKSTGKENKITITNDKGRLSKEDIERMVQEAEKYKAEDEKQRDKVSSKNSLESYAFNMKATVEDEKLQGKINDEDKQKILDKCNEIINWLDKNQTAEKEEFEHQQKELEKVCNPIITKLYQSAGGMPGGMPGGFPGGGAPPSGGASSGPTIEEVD
T1 sequence (P36969 28-197 limits assumed): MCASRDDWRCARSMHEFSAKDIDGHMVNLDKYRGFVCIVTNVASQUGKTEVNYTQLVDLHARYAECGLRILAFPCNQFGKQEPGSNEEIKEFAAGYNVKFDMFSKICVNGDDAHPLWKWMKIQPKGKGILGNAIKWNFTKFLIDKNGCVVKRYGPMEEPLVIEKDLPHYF

## COc1ccc(-c2nc(-c3cc(C(F)(F)F)cc(C(F)(F)F)c3)n(Cc3ccc(C(=O)NCCOCCOCCOCCn4cc(COc5ccc(N(C(=O)CCl)C(C(=O)NCCc6ccccc6)c6cccs6)cc5Cl)nn4)cc3)c2-c2ccc(OC)cc2)cc1 (centres unmarked) [GDAz-3, 4-((2-(3,5-bis(trifluoromethyl)phenyl)-4,5-bis(4-methoxyphenyl)-1H-imidazol-1-yl)methyl)-N-(2-(2-(2-(2-(4-((2-chloro-4-(2-chloro-N-(2-oxo-2-(phenethylamino)-1-(thiophen-2-yl)ethyl)acetamido)phenoxy)methyl)-1H-1,2,3-triazol-1-yl)ethoxy)ethoxy)ethoxy)ethyl)benzamide]
HT1080 cells
  IC50: 280 nM
[1]; SPR, 1 µM GDAz-3 preincubated with GPX4, immobilized Hsc70
  Kd: 23.9 nM
[1]; ternary complex Hsc70/GDAz-3/GPX4
  Cooperativity (α): 0.75
GPX4 mRNA
  Level of GPX4 mRNA: did not significantly affect
GSH
  Level of intracellular GSH: significantly decreased
